Data on 4 compounds can be found in patent US7476655B2, “Materials and methods for regulating blood flow” (University of Florida Research Foundation, Inc., priority 2005, dated 2009).

Assay [1] concerns eNOS. In words: catalytic activity of eNOS in cultured pulmonary artery endothelial cells ([3H]-citrulline formation from [3H]-L-arginine). Type of assay: cell-based. Particulars: PAEC monolayers, varying concentrations, 37° C., 1 hr, compared to control (FIG. 2). The method, then:
The effects of the synthetic peptides (P3, P4, and P6) of the subject invention on the catalytic activity of eNOS were examined using a cultured pulmonary artery endothelial cell (PAEC) model.
PAEC monolayers were incubated in RPMI 1640 medium with or without (control) the presence of varying concentrations of P3, P4, or P6 at 37° C. for 1 hr. After incubation, the catalytic activity of eNOS was determined as previously described by monitoring formation of [3H]-citrulline from [3H]-L-arginine (Chen, S., J. M. Patel and E. R. Block ER (2000) “Angiotensin IV-mediated pulmonary artery vasorelaxation is due to endothelial intracellular calcium release” Am. J. Physiol. Lung Cell Mol. Physiol. 279:L849-L856; and Patel, J. M., Y. D. Li, J. L. Zhang et al. (1999) “Increased expression of calreticulin is linked to Ang-IV-mediated activation of lung endothelial NOS” Am. J. Physiol Lung Cell Mol. Physiol. 277:L794-L801).

Assay [2] has as its system cGMP-specific PDE. In words: cGMP-specific PDE activity in PAEC (hydrolysis of 3H-cGMP in supernatant). Type of assay: cell-based. The conditions noted are these: 10 μM, 1 hr at 37° C., compared to control (FIG. 3). The procedure:
The synthetic peptides were evaluated to asses any association with modulation of cGMP-specific PDE activity in PAEC.
Cell monolayers were incubated in RPMI 1640 medium with or without (control) the presence of 10 μM each of P3, P4, P6 or Zaprinast for 1 hr at 37° C. After incubation, cells were washed, homogenized, and supernatant were collected by centrifugation at 15,000×g for 15 min at 4° C. PDE activity in the supernatant were measured by monitoring hydrolysis of 3H-cGMP as previously described (16).

Assay [3] concerns hypoxic lungs. In words: in situ lung perfusion, pulmonary arterial pressure, rat model of hypoxic pulmonary hypertension. Type of assay: in vivo, Sprague Dawley rats. Particulars: for pulmonary arterial pressure (PAP): infusion of 20 μM (FIG. 6). The procedure:
(§1) Specific pathogen-free Sprague Dawley rats (200-250 g body weight) were anesthetized with pentobarbital (60 mg/kg, ip). After confirmation of deep anesthesia, the trachea was cannulated with an 18-G blunt-tipped catheter and ventilated (SAR-830/p small animal ventilator, CWE, Ardmoore, Pa.) at a tidal volume of 2.5 ml/min with warm humidified 21% O2/5% CO2/74% N2 at 60 breaths/min with peak inspiratory and expiratory pressures of 9 cm and 3 cm H2O, respectively. A thoracotomy was performed and 100 units heparin injected into the right ventricle (RV). PE-90 polyethylene tubing connected to a Cook Double Lumen Central Venous Catheter (Cook Critical Care, Bloomington, Ind.) was placed in the left atrium through the left vetricle and tied in place. After placement of another PE-90 polyethylene tube connected with a double lumen catheter in the main pulmonary artery (PA), the lung were ventilated with 21% O2/5% CO2/74% N2 (normoxic) at constant end-expiratory pressure of 20 cm H2O and perfused in situ in the open chest with RPMI 1640 without pH indicator containing 4% Ficoll at a constant flow of 2 ml/min. After 30 min, the ventilation mixture was changed to 2% O2/5% CO2/93% N2 (hypoxic) for 30 min and change in PA pressure was continuously recorded using PO-NE-MAH-P3P Lung Perfusion System software (Gould Instrument System) and the perfusate samples were collected to determine level of NO release as previously reported (Hu et al. Am. J. Physiol. Lung Cell Mol. Physiol. 286: L1066-L1074, 2004). The ventilation gas (hypoxic) was return to normoxic gas, and the lungs were perfused with P3 (20 and 40 μM) in RPMI 1640 or RMPI 1640 for 10 min, after which the hypoxic challenge with 2% O2 was repeated, and the PA pressure response was recorded.

Assay [4] concerns NO release. In words: NO release in perfusates of in situ perfused rat lungs. Type of assay: in vivo, Sprague Dawley rats. The method, then: as §1, with “After placement of another PE-90 polyethylene tube connected with a double lumen catheter in the main pulmonary artery (PA), the lung were ventilated with 21% O2/5% CO2/74% N2 (normoxic) at constant end-expiratory pressure of 20 cm H2O and perfused in situ in the open chest with RPMI 1640 without pH indicator containing 4% Ficoll at a constant flow of 2 ml/min.” left out

Assay [5] deals with hypoxic lungs. In words: in vivo vasodilation effect in rats exposed to hypoxia (10% inspired O2) for 2 to 6 weeks. Also noted: species or system Sprague Dawley rats. The conditions noted are these: 10 mg/kg or 20 mg/kg ip once every day. The method, then:
Specific pathogen-free Sprague Dawley rats (200-250 g body weight) were exposed to hypoxia (10% inspired O2) in a Coy Laboratory hypoxia chamber equipped with auto purge, airlock, and automated live animal filtration and dehumidification systems for 2 to 6 weeks. Control (normoxia) animals were maintained in similar humidity and temperature environment. Hypoxia exposure was 24 hr/day, except when the chamber was open twice a week for 10-15 min each to clean cages and replenish food and water. All rats were exposed to 12:12-hr light/dark cycle and allowed free access to standard rat food and water. Some rats were administered P3 (+P3) in saline (10 mg/kg or 20 mg/kg, ip) or saline alone (−P3) once every day starting 24 hr prior to initiation of exposure to hypoxia. After 2, 3, and 6 weeks exposure animals were use to measure various parameters including changes in pulmonary artery pressure, lung weight/body weight (LW/BW) ratio, and right vertical/heart weight (RV/HW) ratio.

For assay [6], the system named is hypoxic mice lungs. In words: vasodilator response in excised hypoxic mouse lungs. Further details: species or system C57BL/6J mice. The conditions noted are these: 15 μM, with or without L-NAME 100 μM (FIG. 4). The procedure: Specific pathogen-free female C57BL/6J mice (30-35 g body weight) were anesthetized with pentobarbital (60 mg/kg, ip), and the lungs were excised from the thorax, ventilated with air (control) or with 0% oxygen for 1 hour at 60 breaths/min with a SAR-830 series small animal ventilator at a tidal volume of 0.6-0.8 ml/100 g body weight. After development of hypoxic vasoconstriction, vasodilator response was monitored by addition of 15 μM each of P3, P4, P6 or zaprinast with or without the presence of nitric oxide synthase inhibitor (L-NAME, 100 μM). The vasodilatory response was continuously monitored as previously described (Hu et al. (2004) Am. J. Physiol. Lung Cell Mol. Physiol. 286:[…]-[…]).

On to “KRFNSISCSSWRRKR (Peptide (P3) used according to the subject invention.)”, for which the “catalytic activity of eNOS” value in assay [1] was “significantly enhanced in a dose-dependent manner”. In addition, the “cGMP-specific catalytic activity of PDE” value in assay [2] was “significantly reduced”. The “magnitude of reduction of PAP in hypoxic lung versus normoxic lungs” value in assay [3] (hypoxic compared with normoxic lungs) is recorded as “much greater”. Also, the “pulmonary arterial pressure (PAP)” value in assay [3] (hypoxic lungs) and in assay [3] (normoxic lungs) was “significantly attenuated” in each case. The “attenuation of PAP at 40 μM relative to 20 μM” value in assay [3] (normoxic and hypoxic lungs, 40 μM) is given as “comparable”. The “NO release in perfusates” value in assay [4] (hypoxic lungs (FIG. 7)) and in assay [4] (normoxic lungs (FIG. 7)) was “increases” in each case. The “hypoxia-induced PAP pressure” value in assay [5] (hypoxia (FIG. 11)) is recorded as “attenuated”. In addition, the “hypoxia-induced RV/HW ratio” value in assay [5] (hypoxia (FIG. 12)) is reported as “attenuated”.
Consider “KKRFNSISCSSWRRKRKKR (Peptide (P4) used according to the subject invention.)”, for which the “catalytic activity of eNOS” value in assay [1] was “significantly enhanced in a dose-dependent manner”. Moreover, the “cGMP-specific catalytic activity of PDE” value in assay [2] is listed as “significantly reduced”.
As for `CCCOc1ccccc1-c1nc2nn[nH]c2c(=O)[nH]1` [Zaprinast, reference compound], the “cGMP-specific catalytic activity of PDE” value in assay [2] is listed as “loss PDE activity”. In addition, in assay [6], the “vasorelaxation of hypoxic mice lungs” value is recorded as “vasorelaxtion”.
For “WRRKRKES (Peptide (P6) used according to the subject invention.)”, the “catalytic activity of eNOS” value in assay [1] was “significantly enhanced in a dose-dependent manner”. In addition, the “cGMP-specific catalytic activity of PDE” value in assay [2] is given as “significantly reduced”.
